The source made the active and inactive calls.
How the values were obtained:
[1] = viability of PTEN-deleted HCT116 cells – cell-based, HCT116 PTEN knockout, dose response (AID 1047); format: functional;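 further: HCT116 colon tumor cells with PTEN knocked out; cells exposed to compound for 60 hours before readout; potency for loss of cell viability measured by luminescence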
[2] = viability of HCT116 lacking mutant beta-catenin – cell-based, human colon tumor, dose response (AID 1045); format: functional;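 further: HCT116 colon tumor cells with beta catenin knocked out; cells exposed to compound for 60 hours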
[3] = target: T1, Heat shock factor protein 1 (Mus musculus, UniProt P38532); test: enhancement of HSF1-driven luciferase signal – cell-based, NIH3T3, luminescence, dose retest, confirmation (AID 435004); format: functional;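 further: stress induced by proteasome inhibitor MG132 added 30 min after compound; luciferase reporter driven by HSF1 response element in NIH3T3 cells; actives raise luminescence as potentiators of the MG132 stress response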
T1 sequence (P38532 whole entry): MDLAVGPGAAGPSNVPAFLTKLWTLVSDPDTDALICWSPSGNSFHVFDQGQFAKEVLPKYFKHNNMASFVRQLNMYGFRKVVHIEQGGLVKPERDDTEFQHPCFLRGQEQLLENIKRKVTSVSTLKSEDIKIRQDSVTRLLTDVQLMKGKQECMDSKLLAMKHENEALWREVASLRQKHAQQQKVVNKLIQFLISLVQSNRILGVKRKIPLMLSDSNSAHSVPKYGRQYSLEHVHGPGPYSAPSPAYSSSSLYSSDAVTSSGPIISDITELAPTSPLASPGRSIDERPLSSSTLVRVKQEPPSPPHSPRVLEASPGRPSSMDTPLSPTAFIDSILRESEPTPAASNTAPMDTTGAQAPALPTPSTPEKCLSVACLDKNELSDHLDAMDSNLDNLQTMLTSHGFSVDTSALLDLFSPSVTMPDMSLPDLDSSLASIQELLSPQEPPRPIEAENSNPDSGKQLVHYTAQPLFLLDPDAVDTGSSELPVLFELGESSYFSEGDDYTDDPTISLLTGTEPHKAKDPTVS

INS1 = test: INS-1E survival protection against cytokine death – cell-based, luminescence, retest, dose response (AID 449756); format: functional; conditions: Rattus norvegicus;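 further: cell death triggered by IL-1 beta plus TNF-alpha plus IFN-gamma mixture; protective hits raise ATP signal compared with cytokine alone wells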
[4] = fluconazole-exposed Candida albicans growth modulators – fluorescence, retest, confirmation (AID 2467); format: functional, cell-based
[5] = NIH-3T3 fibroblast cytotoxicity, dose response, cytotoxicity control, cell-based, fluorescence, Alamar Blue, secondary assay (AID 2327); format: functional;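 further: NIH-3T3 mouse fibroblasts cultured with fluconazole at 8 µg/mL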
cells = format: functional
[6] = system: Streptococcus sp. 'group A'; test: Streptococcus pyogenes SK(-)GAS viability under kanamycin – luminescence, BacTiterGlo, confirmation, counter-screen for streptokinase expression inhibitor project, dose response (AID 1900); format: functional, organism-based
Streptokinase A = target: T2, Streptokinase A (Streptococcus pyogenes serotype M1, UniProt P10520); test: viability-normalized secreted streptokinase activity reduction – plasminogen activation absorbance, OD405, dose response (AID 1914); format: functional, Streptococcus pyogenes M1 GAS;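 further: secreted streptokinase activity via plasminogen activation per viability signal from cell pellet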
T2 sequence (P10520 whole entry): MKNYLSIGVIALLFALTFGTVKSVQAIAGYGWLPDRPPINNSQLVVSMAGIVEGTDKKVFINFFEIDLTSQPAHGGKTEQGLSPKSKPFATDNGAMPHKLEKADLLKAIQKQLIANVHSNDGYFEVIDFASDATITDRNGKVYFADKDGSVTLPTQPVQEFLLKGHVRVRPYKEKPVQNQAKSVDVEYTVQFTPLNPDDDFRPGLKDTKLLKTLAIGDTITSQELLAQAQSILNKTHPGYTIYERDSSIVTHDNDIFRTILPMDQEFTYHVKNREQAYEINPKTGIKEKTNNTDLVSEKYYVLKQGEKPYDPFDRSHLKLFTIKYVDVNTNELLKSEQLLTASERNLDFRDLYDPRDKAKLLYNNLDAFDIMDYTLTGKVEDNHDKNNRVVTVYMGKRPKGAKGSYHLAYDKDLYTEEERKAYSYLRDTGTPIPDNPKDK

Streptococcus = test: GAS UMAA2166 growth inhibition – luminescence, BacTiterGlo, counter-screen for streptokinase expression inhibitor project, dose response (AID 1915); format: functional, organism-based;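 further: potency for reduction of bacterial viability or growth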
Paired box protein Pax-8 = Paired box protein Pax-8 (Homo sapiens, UniProt Q06710); test: PAX8 transcriptional activity inhibition in RMG-I – RMG-I cells, luciferase, cherry-pick, dose response (AID 687027); format: functional, cell-based;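 further: luciferase reporter driven by Pax8 target thyroperoxidase promoter measured by SteadyGlo luminescence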
Sequence of Paired box protein Pax-8 (Q06710 whole entry, the tested form may be a part): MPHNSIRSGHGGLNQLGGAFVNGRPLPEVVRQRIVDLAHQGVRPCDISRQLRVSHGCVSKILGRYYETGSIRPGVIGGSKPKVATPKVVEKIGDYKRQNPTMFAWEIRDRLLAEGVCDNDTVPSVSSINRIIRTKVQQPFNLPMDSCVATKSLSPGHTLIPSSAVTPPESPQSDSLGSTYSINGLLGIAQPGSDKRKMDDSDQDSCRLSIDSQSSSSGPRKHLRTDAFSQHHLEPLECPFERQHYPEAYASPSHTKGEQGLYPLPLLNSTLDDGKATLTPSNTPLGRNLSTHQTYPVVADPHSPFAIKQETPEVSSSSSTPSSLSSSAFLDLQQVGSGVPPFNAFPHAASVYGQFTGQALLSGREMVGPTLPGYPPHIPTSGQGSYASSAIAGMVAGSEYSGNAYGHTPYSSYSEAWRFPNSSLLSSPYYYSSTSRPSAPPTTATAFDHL

[7] = blockers of HIV-1 envelope-mediated cell-cell fusion – cherry-pick, dose response (AID 652057); format: functional, cell-based
[8] = blockers of HIV-1 ZM109 envelope-driven cell-cell fusion – HeLa effector, CEM target cells, luciferase, cherry-pick, dose response (AID 652058); format: functional, cell-based;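 further: luciferase signal from HIV-1 Env mediated cell-cell fusion of effector and target cells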

CCOc1ccccc1N=C(S)N(Cc1cc2ccc(C)cc2nc1O)CC1CCCN1CC (centres undefined)
EC50 [1]: 20.5 µM (active) | EC50 [2]: 17.4 µM (active)

C/C=C/c1c(F)c(F)c(Oc2ccc(C(=O)O)cc2)c(F)c1F
EC50 [3]: > 260 µM (inactive)

Cc1occc1C(=O)N1CCCC(N2CCN(c3cccc(C(F)(F)F)c3)CC2)C1 (centres undefined)
AC50 (INS1): 111 µM (active)

CC(C)CN(C(=O)COC(=O)C12CC3CC(CC(Cl)(C3)C1)C2)c1c(N)n(Cc2ccccc2)c(=O)[nH]c1=O
AC50 (INS1): 7.15 µM (active)

COCCCN1C(=O)C(O)=C(C(=O)c2ccc(OCC(C)C)cc2C)C1c1cccnc1 (centres undefined)
EC50 [4]: > 38 µM (not active) | EC50 [5]: > 150 µM (inactive)

Cc1nn2c(O)c3c(nc2c1-c1ccccc1)CCCC3
IC50 (cells): 11.8 µM (active)

Fc1ccccc1N=C(S)N1CCN(c2ccccn2)CC1
EC50 [3]: > 260 µM (inactive)

O=C(NC1CCCCC1)c1cc([N+](=O)[O-])n[nH]1
EC50 [4]: 1.66 µM (active) | EC50 [5]: 154 µM (active)

COCCCNC(=O)COC(=O)c1ccc(-c2nc3ccccc3s2)s1
IC50 (cells): 10.5 µM (active)

O=C(Cc1nc2ccccc2nc1O)c1ccc(Cl)cc1
EC50 [3]: 198 µM (inconclusive)

O=C(c1ccc(Br)cc1)N1CCCC(c2nc(-c3cccs3)no2)C1 (centres undefined)
EC50 [3]: > 260 µM (inactive)

CC(=O)OCC1=C(C(=O)O)N2C(=O)C(NC(=O)c3ccc(F)cc3)C2SC1 (centres undefined)
EC50 [6]: 3.94 µM (active) | EC50 (Streptokinase A): > 150 µM (not active) | EC50 (Streptococcus): 7.79 µM (active)

CCOC(=O)c1c(C)oc2c1c(C(c1ccccc1)N1CCOCC1)c(O)c1ccccc12 (centres undefined)
EC50 [6]: 3.16 µM (active) | EC50 (Streptokinase A): 0.886 µM (active) | EC50 (Streptococcus): 5.32 µM (active)

c1ccc2c(Nc3nc4c(s3)CCCC4)cccc2c1
EC50 [6]: 14.4 µM (active) | EC50 (Streptokinase A): 19.6 µM (inconclusive) | EC50 (Streptococcus): > 150 µM (not active)

COc1cc(OC)cc(-c2nc3ccccc3c(=O)o2)c1
IC50 (cells): 8.58 µM (active)

O=C1CCC(/C=C/c2ccccc2)=NN1
EC50 [3]: > 260 µM (inactive)

COCCn1c(SCC(=O)NC2CCCCC2)nc2c(c1=O)SCC2
EC50 [3]: > 260 µM (inactive)

Nc1c(Cl)ncnc1N/N=C/c1ccccn1
AC50 (INS1): 0.521 µM (active)

C[C@H]1CCCCO[C@H](CN(C)Cc2ccc(C(F)(F)F)cc2)[C@@H](C)CN([C@@H](C)CO)C(=O)c2cc(NC(=O)Nc3ccc(F)cc3)ccc2O1
AC50 (Paired box protein Pax-8): 10.6 µM (active)

COc1ccc(S(=O)(=O)N[C@H]2C=C[C@H](CC(=O)N3CCN(c4ccccc4)CC3)O[C@@H]2CO)cc1
AC50 [7]: 26.7 µM (active) | AC50 [8]: 36.8 µM (active)

C[C@H](CO)N1C[C@H](C)[C@H](CN(C)S(=O)(=O)c2cccs2)OCCCC[C@H](C)Oc2ccc(NC(=O)NC3CCCCC3)cc2C1=O
AC50 (Paired box protein Pax-8): 10.7 µM (active)

Cc1cccc(-c2ccc([C@H]3[C@H](CO)N4CCCCN(S(=O)(=O)c5ccccc5C)C[C@@H]34)cc2)c1
AC50 (Paired box protein Pax-8): 11.4 µM (active)

CSCC[C@H](NC(=O)OC(C)(C)C)C(=O)N/N=C/c1cc2ccc(C)cc2nc1Cl
EC50 [1]: 18.7 µM (active) | EC50 [2]: 17.7 µM (active)
